Test system: HL-60
Test: In vitro differentiation-inducing activity of human myeloid leukemia cells (HL-60) into macrophages; compound showed potent activity
Format: functional, cell-based

## C=C1/C(=C\C=C2/CCC[C@@]3(C)C2CCC3[C@@H](C)SCCC(O)(CC)CC)C[C@@H](O)C[C@@H]1O (stereo partly specified)
  Activity: compound showed potent activity

Source: ChEMBL document CHEMBL1128122, “Synthesis of 1,25-dihydroxy-22-thiavitamin D3 and related analogs” (1995)
